Assay: molar heat capacity at constant pressure
Conditions: 101 kPa, Liquid, Small sample (50 mg) DSC

CCC(N)(CO)CO [2-amino-2-ethyl-1,3-propanediol]
Conditions | molar heat capacity at constant pressure [J/K/mol]
303.15 K | 367.5
308.15 K | 370.5
313.15 K | 374.1
318.15 K | 378
323.15 K | 381.5
328.15 K | 385.8
333.15 K | 389.9
338.15 K | 393.9
343.15 K | 398.6
348.15 K | 403.1
353.15 K | 408.2

— the NIST ThermoML archive (doi:10.1016/j.fluid.2013.12.017)
